Laboratory results: ChEMBL document CHEMBL1208684 (Eur J Med Chem, 2010)
Calls of active or inactive are those of the source. No cut-off for these calls is given here.

How the values were obtained:
[1] = tested on: K562; assay: Antiproliferative activity against human K562 cells after 48 hrs; assay type: functional, cell-based; conditions: K562, 48 h
[2] = biological target: Tubulin (Sus scrofa, UniProt P02554+P02550); assay: Inhibition of pig brain tubulin polymerization after 30 mins by turbidimetry
[3] = tested on: PtK2; assay: Disruption of microtubule network in rat kangaroo PtK2 cells at 5 uM after 1 hr by immunofluorescence microscopic analysis; assay type: functional, cell-based; conditions: Potorous tridactylus
[4] = tested on: RKO; assay: Antiproliferative activity against human RKO cells expressing p27Kip1 after 48 hrs by XTT assay; assay type: functional, cell-based
[5] = Cell cycle arrest in human KB/HeLa cells assessed as accumulation at G2/M phase after 24 hrs using propidium iodide staining by FACS analysis; assay type: functional, cell-based
[6] = Antiproliferative activity against human KB/HeLa cells after 48 hrs by XTT assay; assay type: functional, cell-based
[7] = Antiproliferative activity against multi drug-resistant rat LT12 cells after 48 hrs by XTT assay; assay type: functional, cell-based; conditions: LT12, 48 h
[8] = Antiproliferative activity against rat LT12 cells after 48 hrs by XTT assay; assay type: functional, cell-based; conditions: LT12, 48 h
[9] = tested on: L1210; assay: Antiproliferative activity against vincristine-resistant mouse L1210 cells after 48 hrs by XTT assay; assay type: functional, cell-based; conditions: L1210, 48 h
[10] = tested on: P388; assay: Antiproliferative activity against mouse P388 cells after 48 hrs by XTT assay; assay type: functional, cell-based; conditions: P388, 48 h
[11] = Displacement of [3H]paclitaxel from biotin-labeled tubulin after 2 hrs by scintillation proximity assay
[12] = tested on: RKO; assay: Antiproliferative activity against human RKO cells after 48 hrs by XTT assay; assay type: functional, cell-based
[13] = tested on: SF-268; assay: Antiproliferative activity against human SF268 cells after 48 hrs by XTT assay; assay type: functional, cell-based; conditions: SF-268, 48 h
[14] = Displacement of [3H]colchicine from biotin-labeled tubulin after 2 hrs by scintillation proximity assay
[15] = tested on: L1210; assay: Antiproliferative activity against mouse L1210 cells after 48 hrs by XTT assay; assay type: functional, cell-based; conditions: L1210, 48 h
[16] = tested on: SK-OV-3; assay: Antiproliferative activity against human SKOV3 cells after 48 hrs by XTT assay; assay type: functional, cell-based; conditions: SK-OV-3, 48 h
[17] = biological target: Tubulin (Sus scrofa) (UniProt P02554+P02550); assay: Ratio of compound IC50 to colchicine IC50 for inhibition of pig brain tubulin polymerization
Tubulin (Sus scrofa), sequence (P02550 whole entry, looked up): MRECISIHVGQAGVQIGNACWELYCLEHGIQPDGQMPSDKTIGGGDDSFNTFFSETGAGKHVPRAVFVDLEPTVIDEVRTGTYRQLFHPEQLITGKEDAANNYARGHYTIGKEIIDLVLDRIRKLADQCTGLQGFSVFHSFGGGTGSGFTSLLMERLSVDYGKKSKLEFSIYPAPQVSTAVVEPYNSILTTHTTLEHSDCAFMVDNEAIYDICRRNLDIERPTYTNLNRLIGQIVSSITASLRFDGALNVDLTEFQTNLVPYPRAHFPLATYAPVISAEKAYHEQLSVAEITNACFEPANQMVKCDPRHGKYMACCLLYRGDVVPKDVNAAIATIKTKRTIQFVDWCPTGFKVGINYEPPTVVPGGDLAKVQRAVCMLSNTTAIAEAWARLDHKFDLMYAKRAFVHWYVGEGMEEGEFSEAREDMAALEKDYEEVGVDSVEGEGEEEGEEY
Tubulin (Sus scrofa), sequence (P02554 whole entry, looked up): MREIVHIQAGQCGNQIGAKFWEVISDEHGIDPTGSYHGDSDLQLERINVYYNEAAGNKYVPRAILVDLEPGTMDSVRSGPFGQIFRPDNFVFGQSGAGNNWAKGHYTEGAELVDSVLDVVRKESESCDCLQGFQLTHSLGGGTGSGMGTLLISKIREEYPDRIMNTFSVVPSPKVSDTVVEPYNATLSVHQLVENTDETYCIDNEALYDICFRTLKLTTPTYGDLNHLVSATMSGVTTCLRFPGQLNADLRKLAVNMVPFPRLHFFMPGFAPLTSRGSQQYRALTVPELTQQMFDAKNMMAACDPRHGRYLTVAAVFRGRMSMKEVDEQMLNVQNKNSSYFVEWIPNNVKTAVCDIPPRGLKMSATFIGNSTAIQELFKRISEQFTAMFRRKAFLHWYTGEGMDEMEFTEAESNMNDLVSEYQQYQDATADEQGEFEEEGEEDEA

[18] = tested on: P388; assay: Antiproliferative activity against adriamycin-resistant mouse P388 cells after 48 hrs by XTT assay; assay type: functional, cell-based; conditions: P388, 48 h
[19] = tested on: NCI-H460; assay: Antiproliferative activity against human NCI-H460 cells after 48 hrs by XTT assay; assay type: functional, cell-based; conditions: NCI-H460, 48 h

Row | IC50 [1] [nM] | IC50 [2] [nM] | SMILES | also measured
1 | 1420 | > 2000 | COc1ccc(C=C2c3cccc(OC)c3C(=O)c3c(OC)cccc32)cc1 | –
2 | 230 | 360 | COc1cc(C(=O)/C=C2\c3cccc(Cl)c3C(=O)c3cccc(Cl)c32)cc(OC)c1OC | Activity [3]: Active
3 | 2000 | – | O=C1c2c(O)cccc2C(=Cc2ccc(O)cc2)c2cccc(O)c21 | –
4 | > 15000 | – | O=C1c2cccc(Cl)c2C(Cc2ccc([N+](=O)[O-])cc2)c2cccc(Cl)c21 (configuration not stated) | –
5 | 10000 | > 10000 | COc1cc(C=C2c3cccc(Cl)c3C(=O)c3c(Cl)cccc32)cc(OC)c1OC | –
6 | 2000 | 1660 | COc1cc(C=C2c3cccc(Cl)c3C(=O)c3c(Cl)cccc32)cc(OC)c1O | –
7 | – | – | COC(=O)Nc1nc2cc(C(=O)c3cccs3)ccc2[nH]1 [NOCODAZOLE] | IC50 [4]: > 10000 nM; EC50 [5]: 91 nM; IC50 [6]: 140 nM; IC50 [7]: 70 nM; IC50 [8]: 40 nM
8 | > 80000 | > 2000 | COc1ccc(CC2c3cccc(Cl)c3C(=O)c3c(Cl)cccc32)cc1 | –
9 | 1700 | – | O=C1c2c(O)cccc2C(=Cc2ccc(C(F)(F)F)cc2)c2cccc(O)c21 | –
10 | 220 | 530 | COc1ccc(C(=O)/C=C2\c3cccc(Cl)c3C(=O)c3cccc(Cl)c32)cc1 | –
11 | 250 | 360 | COc1ccc(C=C2c3cccc(Cl)c3C(=O)c3c(Cl)cccc32)cc1O | IC50 [4]: > 9000 nM; EC50 [5]: 118 nM; IC50 [9]: 300 nM; IC50 [10]: 390 nM; Activity [11]: inactive; IC50 [12]: 160 nM; IC50 [13]: 170 nM; IC50 [6]: 140 nM; IC50 [14]: 1380 nM; IC50 [15]: 510 nM; IC50 [7]: 290 nM; IC50 [16]: 140 nM; Ratio IC50 [17]: 4; IC50 [18]: 640 nM; IC50 [19]: 210 nM; IC50 [8]: 630 nM
12 | 2600 | > 10000 | COc1cc(C=C2c3cccc(O)c3C(=O)c3c(O)cccc32)cc(OC)c1OC | –
13 | 610 | 870 | COc1ccc(C=C2c3cccc(Cl)c3C(=O)c3c(Cl)cccc32)cc1 | –
14 | – | – | CC[C@]1(O)C[C@H]2CN(CCc3c([nH]c4ccccc34)[C@@](C(=O)OC)(c3cc4c(cc3OC)N(C=O)[C@H]3[C@@](O)(C(=O)OC)[C@H](OC(C)=O)[C@]5(CC)C=CCN6CC[C@]43[C@@H]65)C2)C1 [VINCRISTINE] | EC50 [5]: 2.4 nM
15 | 930 | 730 | COc1ccc(C(=O)C=C2c3cccc(Cl)c3C(=O)c3c(Cl)cccc32)cc1 | –
16 | 2000 | 4000 | COc1ccc(C=C2c3cccc(O)c3C(=O)c3c(O)cccc32)cc1 | –
17 | – | – | COc1cc2c(c(OC)c1OC)-c1ccc(OC)c(=O)cc1[C@@H](NC(C)=O)CC2 [COLCHICINE] | IC50 [4]: > 10000 nM; EC50 [5]: 14 nM; IC50 [6]: 30 nM
18 | – | – | CC(=O)O[C@H]1C(=O)[C@@]2(C)[C@H]([C@H](OC(=O)c3ccccc3)[C@]3(O)C[C@H](OC(=O)[C@H](O)[C@@H](NC(=O)c4ccccc4)c4ccccc4)C(C)=C1C3(C)C)[C@]1(OC(C)=O)CO[C@@H]1C[C@@H]2O [PACLITAXEL] | IC50 [4]: > 3000 nM; EC50 [5]: 49 nM; IC50 [9]: > 5000 nM; IC50 [6]: 10 nM; IC50 [7]: 400 nM; IC50 [18]: > 5000 nM
19 | > 30000 | – | O=C1c2cccc(Cl)c2/C(=C\c2ccccc2)c2cccc(Cl)c21 | –
20 | 1600 | – | O=C(/C=C1\c2cccc(Cl)c2C(=O)c2cccc(Cl)c21)c1ccc(Cl)cc1 | –
21 | 250 | 690 | COc1cccc(C(=O)/C=C2\c3cccc(Cl)c3C(=O)c3cccc(Cl)c32)c1 | –
22 | 1300 | 520 | COc1ccc(/C=C2/c3cccc(Cl)c3C(=O)c3cccc(Cl)c32)cc1 | –
23 | 1600 | 1200 | COc1ccc(CC2c3cccc(Cl)c3C(=O)c3c(Cl)cccc32)cc1O | –
24 | 270 | 380 | COc1cc(/C=C2/c3cccc(Cl)c3C(=O)c3cccc(Cl)c32)ccc1O | –
25 | 1700 | > 10000 | O=C1c2c(O)cccc2C(=Cc2ccc([N+](=O)[O-])cc2)c2cccc(O)c21 | –
26 | 2300 | > 10000 | O=C1c2c(O)cccc2C(=Cc2ccccc2)c2cccc(O)c21 | –

Row | IC50 [1] [nM] | IC50 [2] [nM] | SMILES | also measured
27 | 3400 | 410 | CC(=O)Oc1ccc(C(=O)/C=C2\c3cccc(Cl)c3C(=O)c3cccc(Cl)c32)cc1 | –
28 | 240 | 690 | COc1ccc(C(=O)/C=C2\c3cccc(Cl)c3C(=O)c3cccc(Cl)c32)cc1OC | –
29 | 1400 | 690 | COc1ccc(/C=C2\c3cccc(Cl)c3C(=O)c3cccc(Cl)c32)cc1 | –
30 | 2600 | – | O=C1c2c(O)cccc2C(=Cc2ccc(O)c(O)c2)c2cccc(O)c21 | –
31 | 5100 | – | COc1ccc(CC2c3cccc(Cl)c3C(=O)c3cccc(Cl)c32)cc1O (configuration not stated) | –
32 | 5000 | > 2000 | COc1cccc(C=C2c3cccc(Cl)c3C(=O)c3c(Cl)cccc32)c1O | –
33 | 2000 | > 10000 | COc1ccc(C=C2c3cccc(O)c3C(=O)c3c(O)cccc32)cc1OC | –
34 | 720 | 1620 | COc1cc(C(=O)C=C2c3cccc(Cl)c3C(=O)c3c(Cl)cccc32)cc(OC)c1OC | –
35 | 18000 | – | COc1cc(/C=C2\c3cccc(Cl)c3C(=O)c3cccc(Cl)c32)cc(OC)c1OC | –
36 | > 15000 | – | O=C1c2cccc(Cl)c2C(Cc2ccc(Cl)cc2)c2cccc(Cl)c21 (configuration not stated) | –
37 | > 15000 | – | O=C1c2cccc(Cl)c2C(Cc2ccccc2)c2cccc(Cl)c21 (configuration not stated) | –
38 | 100 | 360 | COc1ccc(C=C2c3cccc(Cl)c3C(=O)c3c(Cl)cccc32)c(OC)c1O | IC50 [4]: > 9000 nM; EC50 [5]: 111 nM; IC50 [9]: 230 nM; IC50 [10]: 320 nM; Activity [11]: inactive; IC50 [12]: 160 nM; IC50 [13]: 140 nM; IC50 [6]: 130 nM; IC50 [14]: 1170 nM; IC50 [15]: 350 nM; IC50 [7]: 170 nM; IC50 [16]: 160 nM; Ratio IC50 [17]: 4; IC50 [18]: 460 nM; IC50 [19]: 170 nM; IC50 [8]: 370 nM
39 | > 30000 | – | O=C1c2cccc(Cl)c2/C(=C/c2ccccc2)c2cccc(Cl)c21 | –
40 | 1700 | 510 | O=C(/C=C1\c2cccc(Cl)c2C(=O)c2cccc(Cl)c21)c1ccc(Br)cc1 | –
41 | 5000 | 6800 | COc1cc(C=C2c3cccc(Cl)c3C(=O)c3c(Cl)cccc32)ccc1O | –
42 | 1900 | – | O=C(/C=C1\c2cccc(Cl)c2C(=O)c2cccc(Cl)c21)c1ccc([N+](=O)[O-])cc1 | –
43 | 210 | 420 | COc1ccc(/C=C2\c3cccc(Cl)c3C(=O)c3cccc(Cl)c32)cc1O | –
44 | 13000 | – | COc1ccc(CC2c3cccc(Cl)c3C(=O)c3cccc(Cl)c32)cc1 (configuration not stated) | –
45 | 290 | 1700 | O=C(/C=C1\c2cccc(Cl)c2C(=O)c2cccc(Cl)c21)c1ccccc1 | –
46 | > 15000 | – | COc1cccc(CC2c3cccc(Cl)c3C(=O)c3cccc(Cl)c32)c1 (configuration not stated) | –
47 | – | – | CC[C@]1(O)C[C@@H]2CN(CCc3c([nH]c4ccccc34)[C@@](C(=O)OC)(c3cc4c(cc3OC)N(C)[C@H]3[C@@](O)(C(N)=O)[C@H](O)[C@]5(CC)C=CCN6CC[C@]43[C@@H]65)C2)C1 [VINDESINE] | IC50 [9]: > 5000 nM; IC50 [7]: 260 nM; IC50 [8]: 1 nM
48 | 17300 | – | COc1ccc(/C=C2/c3cccc(Cl)c3C(=O)c3cccc(Cl)c32)c(OC)c1OC | –
49 | > 15000 | – | COc1cc(CC2c3cccc(Cl)c3C(=O)c3cccc(Cl)c32)cc(OC)c1OC (configuration not stated) | –
50 | 500 | 1600 | COc1ccc(C=C2c3cccc(Cl)c3C(=O)c3c(Cl)cccc32)c(O)c1 | –
51 | 1500 | 1930 | COc1ccc(C=C2c3cccc(O)c3C(=O)c3c(O)cccc32)cc1O | –
